Reference: PubChem BioAssay (NCI)
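Values below derive from 48-hour exposures of cells grown in 96-well plates, with endpoints linearly interpolated between the two concentrations bracketing the appropriate inhibition level. Here, GI50 denotes the concentration required for 50% inhibition of growth. The concentration for full growth arrest is given as TGI.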

Key:
Assay in all cases: inhibition of tumour cell growth, NCI panel, 48 h
EKVX NSCLC = system: EKVX NSCLC
U251 CNS = system: U251 CNS
MCF7 breast = system: MCF7 breast
A498 renal = system: A498 renal
SF-295 CNS = system: SF-295 CNS
LOX IMVI melanoma = system: LOX IMVI melanoma
SF-539 CNS = system: SF-539 CNS
OVCAR-3 ovarian = system: OVCAR-3 ovarian
SNB-19 CNS = system: SNB-19 CNS
MDA-MB-435 = system: MDA-MB-435

| Compound | GI50 (EKVX NSCLC) [µM] | TGI (EKVX NSCLC) [µM] | GI50 (U251 CNS) [µM] | TGI (U251 CNS) [µM] | GI50 (MCF7 breast) [µM] | TGI (MCF7 breast) [µM] | GI50 (A498 renal) [µM] | TGI (A498 renal) [µM] | GI50 (SF-295 CNS) [µM] | TGI (SF-295 CNS) [µM] | GI50 (LOX IMVI melanoma) [µM] | TGI (LOX IMVI melanoma) [µM] | GI50 (SF-539 CNS) [µM] | TGI (SF-539 CNS) [µM] | GI50 (OVCAR-3 ovarian) [µM] | TGI (OVCAR-3 ovarian) [µM] | GI50 (SNB-19 CNS) [µM] | TGI (SNB-19 CNS) [µM] | GI50 (MDA-MB-435) [µM] | TGI (MDA-MB-435) [µM] |
| --- | --- | --- | --- | --- | --- | --- | --- | --- | --- | --- | --- | --- | --- | --- | --- | --- | --- | --- | --- | --- |
| CN(C)CCCNC(=O)c1cc(NC(=O)c2cc(NC(=O)CCc3c[nH]c4ccccc34)cn2C)cn1C | > 100 | > 100 | > 100 | > 100 | > 100 | > 100 | > 100 | > 100 | > 100 | > 100 | > 100 | > 100 | > 100 | > 100 | > 100 | > 100 | > 100 | > 100 | > 100 | > 100 |
| CN(C)CCCOc1ccc(-c2ccc3ncc4c(c3c2)n(C2CCOCC2)c(=O)n4C)cn1 | 0.975 | 12.2 | 4.52 | 18.9 | 0.545 | 14.5 | 0.559 | 3.64 | 1.29 | 7.81 | 1.13 | 6.51 | 1.52 | 6.21 | 1.34 | 10.3 | 4.71 | 18.7 | 1.65 | 11.3 |
| COc1ccc(-c2cc(=O)c3ccc(C)nc3[nH]2)cc1 | – | > 100 | > 100 | > 100 | – | > 100 | – | > 100 | 88.3 | > 100 | – | > 100 | – | > 100 | > 100 | > 100 | – | > 100 | 42.7 | > 100 |
| COC(=O)c1c2c(c[n+]([O-])c1C)C(=O)C=CC2=O | 1.83 | 4.25 | 2.15 | 5.22 | 1.65 | 3.46 | 13.1 | 26.4 | 3.43 | 13.2 | 1.96 | 4.18 | 1.79 | 3.39 | 0.317 | 1.17 | 3.02 | 10.9 | 1.68 | 3.15 |
| COc1cc(/C=C2\C(=O)Nc3cc(C)c(O)cc32)cc(OC)c1OC | 4.08 | 39 | 3.54 | 16.1 | 2.44 | 26.4 | 8.5 | 25.4 | 6.03 | 26.3 | 3.66 | 14.4 | 5.41 | 19.6 | 3.62 | 12.8 | 10.6 | 34.3 | 1.52 | 3.7 |
| COc1cc(OC)cc(N(CCNC(C)C)c2ccc3ncc(-c4cnn(C)c4)nc3c2)c1 | 13.1 | 27 | 4.32 | 19.6 | 10.5 | 24.3 | – | 3.5 | 10.8 | 25.1 | 2.71 | 11.8 | 0.586 | 7.25 | 5.6 | 20.2 | 10.9 | 24.9 | 5.73 | 19 |
| Cn1cc(C2=C(c3cn(CCCCN)c4ccccc34)C(=O)NC2=O)c2ccccc21 | – | – | > 25 | > 25 | > 25 | > 25 | > 25 | > 25 | – | > 25 | > 25 | > 25 | > 25 | > 25 | > 25 | > 25 | > 25 | > 25 | > 25 | > 25 |
| Cc1nn(-c2nc3ccccc3[nH]2)c(N)c1-c1ccc(Cl)cc1 | – | – | 3.18 | > 100 | 4.31 | > 100 | 3.02 | > 100 | – | – | 5.02 | > 100 | 5.89 | > 100 | 7.66 | > 100 | 4.14 | > 100 | 4.6 | > 100 |
| CC(C)(C)C(=O)c1c(C(F)(F)F)n([O-])c2ccccc2[n+]1=O | 0.757 | 2.3 | 0.341 | 1.16 | 0.421 | 2.03 | 0.565 | 1.75 | 0.294 | 1.27 | 0.396 | 1.7 | 0.846 | 2.37 | 0.174 | 0.698 | 0.931 | 2.91 | 0.606 | 1.68 |
| COc1ccc(S(=O)(=O)N2CC(C)(C)CN(S(=O)(=O)c3ccc(OC)cc3)C2C(=O)NO)cc1 | 12.3 | > 20 | > 20 | > 20 | > 20 | > 20 | > 20 | > 20 | > 20 | > 20 | > 11.1 | > 20 | > 20 | > 20 | 19.8 | > 20 | > 20 | > 20 | > 20 | > 20 |
| CNC(=O)c1ccc(N2CCN(Cc3ccc4nc(C)c(=O)[nH]c4c3F)CC2)c(F)n1 | 81.2 | > 100 | 36.5 | > 100 | 65.9 | > 100 | > 100 | > 100 | 48.5 | > 100 | > 100 | > 100 | 55.4 | > 100 | > 100 | > 100 | 34.2 | > 100 | > 100 | > 100 |
| CC(C)=CCc1c(OC(=O)c2c(C)cc(O)cc2O)cc(CO)c(CO)c1O | – | > 100 | – | 40 | – | 46.5 | – | 35.1 | – | 37.5 | – | 40.9 | – | 38 | – | – | – | 21.2 | – | 45.9 |
| CCCC(=O)NC1=C(Cl)C(=O)c2ccccc2C1=O | – | 16.8 | – | 15.3 | – | 7.39 | – | 26.1 | – | 17.1 | – | 6.27 | – | 7.33 | – | 8.01 | – | 36.4 | – | 13.3 |
| C#Cc1cccc(N2C(=O)CCC2=O)c1 | – | 34.3 | – | 33 | – | 44.5 | – | 29.5 | – | 30.1 | – | 32 | – | 46.9 | – | 37.3 | – | 48 | – | 31.2 |
| O=C(CC(c1ccccc1)c1c(O)c2ccccc2oc1=O)c1ccccc1 (configuration not stated) | – | > 100 | – | > 100 | – | > 100 | – | 98.6 | – | > 100 | – | > 100 | – | > 100 | – | > 81.9 | – | > 100 | – | > 100 |
| COC(=O)[C@@H](C)C[C@H](Cc1ccccc1)NC(=O)c1csc(CC[C@H](C(C)C)N(C)C(=O)[C@@H](NC(=O)[C@H]2CCCCN2C)C(C)C)n1 | 1.33 | > 33.3 | 0.398 | > 33.3 | 0.078 | > 33.3 | 0.19 | 1.56 | 0.334 | > 33.3 | 0.373 | > 33.3 | 0.444 | 1.91 | 0.108 | – | 0.168 | > 33.3 | 0.0407 | 0.17 |
| Nc1ccc(C2=NN(c3ccccc3)C(c3ccc(Cl)cc3)C2)cc1 (configuration not stated) | – | – | 1.47 | 2.79 | 1.32 | 3.82 | 1.9 | 13 | 9 | 24.9 | 1.66 | 3.05 | 1.93 | 4.21 | 2.59 | 6.88 | 2.9 | 14.1 | 2.51 | 6.58 |
| C=C1C(=O)O[C@@H]2C[C@@H](C)[C@@H]3C=CC(=O)[C@@]3(C)[C@@H](OC(=O)CC(=O)O[C@H]3[C@@H]4C(=C)C(=O)O[C@@H]4C[C@@H](C)[C@@H]4C=CC(=O)[C@]43C)[C@H]12 | – | 0.32 | – | 0.149 | – | 0.21 | – | 0.467 | – | 0.302 | – | 0.069 | – | 0.0781 | – | 0.159 | – | 1.73 | – | 0.144 |
| O=c1c(Oc2ccc(F)cc2F)cc2cnc(NC3CCOCC3)nc2n1CCCO | – | – | > 25 | > 25 | > 25 | > 25 | > 18.3 | > 25 | > 25 | > 25 | > 25 | > 25 | > 25 | > 25 | > 25 | > 25 | > 25 | > 25 | > 25 | > 25 |
| COc1cc(C#Cc2ccc(=O)oc2C#Cc2ccccc2)cc(OC)c1OC | 5.32 | 13.4 | 1.9 | 3.6 | 1.99 | 4.86 | 19.1 | 34.5 | 18.3 | 38.9 | 1.1 | 2.6 | 3.58 | 11.3 | 1.93 | 3.58 | 8.91 | 34.3 | 3.4 | 17.8 |
| CC(=O)O[C@H]1CC[C@@]2(C)C(=CC[C@H]3[C@@H]4CC[C@H](c5cc(C(F)(F)F)n(C(C)=O)n5)[C@@]4(C)CC[C@@H]32)C1 | – | 21.3 | – | 16.5 | – | 18.7 | – | 22.5 | – | 17 | – | 22.4 | – | 21.9 | – | 18.7 | – | 24 | – | 21.4 |
| S=C(Nc1ccc(Br)cc1)Nc1ccc(Br)cc1 | 3.72 | > 100 | 8.39 | > 100 | 3.87 | > 100 | 5.38 | > 100 | 2.99 | > 100 | 5.29 | > 100 | > 100 | > 100 | 3.58 | > 100 | 17.2 | > 100 | 6.04 | > 100 |
| Cc1ccc(S(=O)(=O)NC(=O)C2C(=O)CC3(CCCCC3)CC2=O)cc1 | – | 61.9 | – | > 100 | – | 55.7 | – | 80.6 | – | 67.1 | – | > 100 | – | 77.5 | – | 92.2 | – | > 100 | – | > 100 |
| OCc1ccc(-c2ccc(-c3ccc(CO)o3)[se]2)o1 | – | – | > 76.4 | > 100 | 5.53 | > 100 | 0.17 | 0.375 | > 40.8 | > 100 | > 91.9 | > 100 | > 100 | > 100 | 31.3 | > 100 | > 100 | > 100 | 42.5 | > 100 |
| CO[C@H]1/C=C/O[C@@]2(C)Oc3c(C)c(O)c4c(c3C2=O)C(=O)C(/C=N/N(c2ccccc2)c2ccccc2)=C(NC(=O)/C(C)=C\C=C\[C@H](C)[C@H](O)[C@@H](C)[C@@H](O)[C@@H](C)[C@H](OC(C)=O)[C@@H]1C)C4=O | – | – | 1.86 | 3.4 | 1.95 | 4.23 | 1.43 | 2.84 | 1.59 | 3 | 1.95 | 3.79 | 1.8 | 3.56 | 1.84 | 3.34 | 1.71 | 3.27 | 1.68 | 3.09 |
| C=C1C(O)C2C(=C(CCc3ccccc3)C13CC3)C(=O)C(C)(CO)C2O (configuration not stated) | > 100 | > 100 | > 100 | > 100 | 53.5 | > 100 | – | – | > 100 | > 100 | > 100 | > 100 | > 100 | > 100 | > 100 | > 100 | > 100 | > 100 | > 100 | > 100 |
| CCOC(=O)N1CCN(c2nc(Nc3cc(C)[nH]n3)c3ccccc3n2)CC1 | – | – | 2.13 | 23.5 | 4.61 | > 100 | 0.423 | 2.78 | 5.98 | > 100 | 1.86 | 10.1 | 1.92 | 9.7 | 7.69 | 37.3 | 10.3 | > 100 | 0.829 | 62.3 |
